Laboratory results from publication PMC9959553, “Promising Antifungal Molecules against Mucormycosis Agents Identified from Pandemic Response Box®: In Vitro and In Silico Analyses” (Journal of Fungi, 2023).

Tested on: R. oryzae UCP1295
Test: Screening of the Pandemic Response Box library at 5 µM
Format: cell-based, Rhizopus oryzae
Conditions: 48 h, Table S1, mean of the four values
How it was run: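 Growth inhibition was read at 600 nm after conidia (2 × 10^5/mL) grew 48 h at 37 °C, 5% CO2, with 5 μM compound in glucose-supplemented (2%), MOPS-buffered RPMI (pH 7.2). Controls were posaconazole at 5 μM and 1% DMSO. The selection cut-off was at least 60% inhibition.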

Row | SMILES | % of growth inhibition, Mean [%]
1 | CCOc1noc2cc(OCCC3CCN(c4ccc(C)nn4)CC3)ccc12 [MMV1634071] | -15.0
2 | CCc1cc(O)c(Oc2ccc(C(N)=O)cc2F)cc1F [MMV1578564] | -17.4
3 | CO[C@@]1(NC(=O)Cc2cccs2)C(=O)N2C(C(=O)O)=C(COC(N)=O)CS[C@@H]21 [MMV1578559] | -22.5
4 | COc1ccc2c(c1)cc(CNC(=O)c1cc3ccccc3o1)n2CC(=O)O [MMV1581553] | -20.7
5 | FC(F)(F)Oc1ccc(Nc2ccc3cccc(Cl)c3n2)cc1 [MMV1581032] | -3.7
6 | Nc1nc(NC2Cc3ccc(F)cc3C2)nc(N2CCCCC2)n1 (centres unmarked) [MMV1580839] | -3.1
7 | CN1C(=O)C(c2ccccc2)C(=O)N(c2ccccc2)c2cc(C(F)(F)F)ccc21 (centres unmarked) [MMV1782208] | -7.5
8 | O=C(O)CCNC(=O)c1ccccc1 [MMV002224] | -6.2
9 | N=c1n(CCN2CCCCC2)c2ccccc2n1CC(O)COc1ccc(Cl)cc1Cl (centres unmarked) [MMV394033] | -0.8
10 | Nc1nc(F)nc2c1ncn2[C@@H]1O[C@H](CO)[C@@H](O)[C@@H]1O [MMV637413] | -6.9
11 | NC(=O)c1cnccn1 [MMV003249] | -5.2
